Measurements reported in US20080139664A1, “ANTI-GLYCATION AGENTS FOR PREVENTING AGE-, DIABETES-, AND SMOKING-RELATED COMPLICATIONS” (NATIONAL RESEARCH COUNCIL OF CANADA, priority 2001, published 2008).
Read-outs that look alike come from different tables or passages of the source.

Columns and labels:
[1] = system: bovine serum albumin (BSA); assay: Fluorescamine assay of free primary amino groups of BSA incubated with D-ribose; assay type: biochemical; conditions: free primary amino group on BSA after 5 days at 37° C.; agent at 16.8 times IC50; 64% without agent
[2] = system: bovine serum albumin (BSA); assay: SDS-PAGE assessment of BSA-BSA protein cross-links; assay type: biochemical; conditions: mixtures further incubated for 4 weeks; note: key: ++: strongly suppressed; +: suppressed; −: no suppression; *: moderate acceleration of the cross-linking
Experimental: Additionally, protein cross-links were semi-quantitatively assessed by SDS PAGE gel chromatography.
Protein-protein cross-links were characterized by SDS-PAGE. The incubation mixtures used for determination of the amino groups were further incubated for 4 weeks. An aliquot of the solution was applied to Pharmacia SDS FAST gel and the proteins were stained with Coomassie blue.

[3] = system: bovine serum albumin (BSA)
Experimental: (§1) During the glycation reaction between proteins and reducing sugars, a specific fluorescence with excitation and emission wavelength of 370 nm and 440 nm, respectively, is observed. […] The assay was based on the progressive development of the characteristic Maillard fluorescence (370 nm Ex and 440 nm Em) during the progress of the glycation reaction.
(§2) The final assay volume was 200 μl and each assay well contained 0.075 mM BSA, and 50 mM D-ribose. Compounds were assayed at 3 different concentration levels (0.003, 0.03, and 0.3 mg/mL) to determine the effect of concentration on inhibition. Samples were incubated for 5 days.
(§3) The Maillard fluorescence was directly measured from the reaction solution, except for the anti-glycants that quenched the Maillard fluorescence, which were analyzed by the earlier-described HPLC method.
(§4) Solutions were incubated in microtitre plates (96 wells) at 37° C. for 5 days in a closed system.
(§5) After one hour incubation at 37° C., fluorescence readings were taken.
(§6) The IC50 values of the compounds that quenched the fluorescence of the glycated BSA were analyzed by on-line monitoring of the fluorescence of the glycated BSA separated from the fluorescence quenching assay compound by RP-HPLC. The elution profile was monitored by UV-diode array and by fluorescence (λex=370 nm, λem=440 nm). […] The incubation conditions were the same as above.

lysozyme = assay: ESI-MS of lysozyme glycoforms after incubation with D-ribose;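 note: lysozyme incubated with D-ribose, with or without anti-glycation agents, then separated by reversed-phase HPLC and analysed by electrospray mass spectrometry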
Experimental: The effect of anti-glycation agents on the accumulation of glycated forms (glycoforms) of protein was evaluated by using electrospray mass spectrometry (ESI-MS). As the molecular mass of BSA was too large to monitor the small mass changes of its glycoforms, lysozyme was incubated with D-ribose and anti-glycants. Lysozyme and its glycoforms were isolated by RP-HPLC and analyzed by mass spectrometry.
Samples of lysozyme (0.756 mM; 4.54 mM of Lys residues) and D-ribose (50 mM) were incubated in the presence and absence of the selected anti-glycation agents at 37° C. for 5 days and subjected to electrospray mass spectrometry (ESI-MS) in order to characterize the protein intermediates as well as carboxymethylated lysozyme. Prior to MS measurements, the proteins were isolated by reversed phase-HPLC and were semi-dried by freeze drying.

[4] = system: bovine serum albumin (BSA); assay: Maillard fluorescence-based assay of AGEs formation, IC50 determination (BSA + D-ribose); conditions: inhibition of Maillard fluorescence development; 0.075 mM BSA, 50 mM D-ribose, 37° C., 5 days
Experimental: as §1, §2, §3, §4, §5, §6

[5] = lysozyme + 2D-ribose − 2H2O (14,569 Da), 37° C., 5 days
[6] = lysozyme + 2D-ribose − 3H2O (14,551 Da), 37° C., 5 days
[7] = lysozyme + 2D-ribose − 5H2O (14,533 Da), 37° C., 5 days
[8] = lysozyme + 2D-ribose − 6H2O (14,515 Da), 37° C., 5 days
[9] = lysozyme + D-ribose − 2H2O (14,419 Da), 37° C., 5 days
[10] = lysozyme + D-ribose − 3H2O (14,401 Da), 37° C., 5 days
[11] = lysozyme + D-ribose − H2O (14,437 Da), 37° C., 5 days
[12] = lysozyme + D-ribose − H2O with one carboxymethylated Lys residue (14,496 Da), 37° C., 5 days
[13] = lysozyme with one carboxymethylated Lys residue (14,364 Da), 37° C., 5 days
[14] = unmodified lysozyme (14,305 Da), 37° C., 5 days
[15] = FIG. 2, in words, 37° C., 5 days

| Compound | Unreacted amino group [1] [%] | Suppression of BSA-BSA cross-links [2] | IC50 [3] [µM] | Peak area as % of total area of all glycoforms, 14,569 (lysozyme; [5]) [%] | Peak area as % of total area of all glycoforms, 14,551 (lysozyme; [6]) [%] | Peak area as % of total area of all glycoforms, 14,533 (lysozyme; [7]) [%] | Peak area as % of total area of all glycoforms, 14,515 (lysozyme; [8]) [%] | Peak area as % of total area of all glycoforms, 14,419 (lysozyme; [9]) [%] | Peak area as % of total area of all glycoforms, 14,401 (lysozyme; [10]) [%] | Peak area as % of total area of all glycoforms, 14,437 (lysozyme; [11]) [%] | Peak area as % of total area of all glycoforms, 14,496 (lysozyme; [12]) [%] | Peak area as % of total area of all glycoforms, 14,364 (lysozyme; [13]) [%] | Peak area as % of total area of all glycoforms, 14,305 (lysozyme; [14]) [%] | also measured |
| --- | --- | --- | --- | --- | --- | --- | --- | --- | --- | --- | --- | --- | --- | --- |
| Oc1cccc2cccnc12 [8-Hydroxyquinoline] | 55 | + | 95 | – | – | – | – | – | – | – | – | – | – | Peak area as % of total area of all glycoforms, 14,305 (lysozyme): 67.8%; Peak area as % of total area of all glycoforms, 14,364 (lysozyme): 4.2%; Peak area as % of total area of all glycoforms, 14,401 (lysozyme): 5.8%; Peak area as % of total area of all glycoforms, 14,419 (lysozyme): 3.6%; Peak area as % of total area of all glycoforms, 14,437 (lysozyme): 9.0%; Peak area as % of total area of all glycoforms, 14,496 (lysozyme): 1.7%; Peak area as % of total area of all glycoforms, 14,515 (lysozyme): 1.7%; Peak area as % of total area of all glycoforms, 14,533 (lysozyme): 1.6%; Peak area as % of total area of all glycoforms, 14,551 (lysozyme): 1.5%; Peak area as % of total area of all glycoforms, 14,569 (lysozyme): 2.3% |
| NC[C@H](O)c1ccc(O)c(O)c1 [D-Norepinephrine] | 67 | + | 66 | 1.0 | 0.0 | 0.0 | 0.0 | 1.9 | 1.9 | 12.1 | 0.7 | 5.0 | 77.3 | – |
| O=S(=O)(O)c1ccc(O)c2ncccc12 [8-Hydroxyquinoline-5-sulfonic acid] | 76 | ++ | 560 | 5.2 | 0.9 | 1.0 | 0.5 | 3.2 | 2.0 | 27.9 | 0.0 | 0.7 | 58.0 | – |
| CN1CCCN=C1/C=C/c1cccc(O)c1 [Oxantel] | 55 | + | 600 | 3.1 | 2.0 | 1.7 | 1.1 | 5.6 | 3.7 | 17.4 | 1.7 | 5.4 | 57.7 | – |
| CCC(NC(C)C)C(O)c1ccc(O)c(O)c1 (centres unmarked) [Isoetharine] | 70 | + | – | 1.6 | 0.7 | 0.9 | 0.9 | 1.6 | 1.3 | 14.3 | 1.4 | 3.9 | 73.4 | IC50 [4]: 25 µM |
| Cc1cc(-c2ccc(/N=N/c3c(S(=O)(=O)O)cc4cc(S(=O)(=O)O)cc(N)c4c3O)c(C)c2)ccc1/N=N/c1c(S(=O)(=O)O)cc2cc(S(=O)(=O)O)cc(N)c2c1O [Trypan blue] | 60 | + | – | 4.6 | 3.4 | 1.9 | 1.6 | 5.6 | 3.0 | 20.2 | 2.1 | 3.7 | 49.8 | IC50 [4]: 240 µM |
| CN(C)[C@@H]1C(O)=C(C(N)=O)C(=O)[C@@]2(O)C(O)=C3C(=O)c4c(O)ccc(Cl)c4[C@@H](O)[C@H]3C[C@@H]12 [Demeclocycline] | 69 | + | 19 | 1.4 | 0.0 | 0.0 | 0.0 | 3.0 | 1.9 | 13.7 | 0.0 | 4.2 | 75.2 | – |
| O=C1c2c(O)ccc(O)c2C(=O)c2c(NCCNCCO)ccc(NCCNCCO)c21 [Mitoxantrone] | 50 | + | 630 | 5.9 | 3.6 | 1.3 | 0.8 | 6.5 | 1.9 | 25.2 | 1.0 | 1.6 | 49.8 | – |
| CNC[C@H](O)c1ccc(O)c(O)c1 [L-Epinephrine] | 69 | ++ | 18 | 1.7 | 0.0 | 0.0 | 0.0 | 2.0 | 0.8 | 15.3 | 1.0 | 4.8 | 74.5 | amount of (AP-H2O) glycoform of lysozyme (lysozyme; [15]): reduced; amount of AP glycoform of lysozyme (lysozyme; [15]): reduced |
| NC[C@@H](O)c1ccc(O)c(O)c1 [L-Norepinephrine] | 70 | + | – | 1.2 | 0.0 | 0.0 | 0.0 | 2.4 | 2.3 | 12.0 | 0.9 | 5.3 | 75.9 | – |
